Laboratory results as given in patent US9511068B2, “Composition for treating or preventing diseases caused by vascular permeability, containing imatinib or pharmaceutically acceptable salt thereof as active ingredient” (AJOU UNIVERSITY INDUSTRY - ACADEMIC COOPERATION FOUNDATION, priority 2012, dated 2016).
Structures can show the parent of a compound that is named as a salt.

Test system: retinal vascular permeability
Experiment: Retinal vascular permeability (FITC-dextran leakage) in STZ-induced diabetic retinopathy rat models
Format: in vivo, Sprague Dawley (SD) rats
Conditions: STZ 200 mg/kg i.p. rats; retina treated with 50, 100 or 250 μg imatinib mesylate at the same time as STZ; observed after 2 weeks by fluorescence microscope
Experimental: Sprague Dawley (SD) rats were administered intraperitoneally with streptozotocin (STZ; Sigma) at a dose of 200 mg/kg (control group), or were injected with STZ while the retina of the animal models were treated with 50, 100 or 250 μg of imatinib mesylate (Novartis, Switzerland) (test groups).
Meanwhile, after the animal models (control and test groups) were housed for 2 weeks, the animal models were anesthetized, and fluorescein isothiocyanate (FITC)-labeled dextran was injected intracardiacally so that the fluorescent substance flowed along the blood vessels.

Cc1ccc(NC(=O)c2ccc(CN3CCN(C)CC3)cc2)cc1Nc1nccc(-c2cccnc2)n1 [imatinib mesylate]
leak degree of the fluorescent substance (FITC-labeled dextran) in the retina / vascular permeability: significantly reduced
